Measured values reported in ChEMBL document CHEMBL4715817, “Python Cathelicidin CATHPb1 Protects against Multidrug-Resistant Staphylococcal Infections by Antimicrobial-Immunomodulatory Duality” (J Med Chem, 2018).
In brackets after ≈: the same amount, converted by molar mass. Activity calls are given as the source filed them. The calls are words filed in the database; no cut-off is given here. Peptide text beside a SMILES is read from it.

How the values were obtained:
Macrophage [1] = assay: Immunomodulatory activity in mouse peritoneal macrophage assessed as increase in MCP-1 level at 20 microg/ml measured after 24 hrs by ELISA; assay type: functional, tissue-based; settings: dose 20.0 µg/ml
Neutrophil [2] = assay: Immunomodulatory activity in neutrophils (unknown origin) assessed as effect on IL-6 level at 20 ug/ml measured after 12 hrs by ELISA; assay type: functional, cell-based; settings: dose 20.0 µg/ml
[3] = Induction of neutrophil extracellular trap formation in neutrophil (unknown origin) at 10 ug/ml measured after 3 hrs by fluorescence analysis; assay type: functional; settings: dose 10 µg/ml
Mus musculus [4] = assay: Immunomodulatory activity in Kunming mouse infected with vancomycin-resistant Staphylococcus aureus assessed as increased in IL-10 level in peritoneal lavage at 10 mg/kg, ip administered 4 hrs after infection by ELISA; assay type: functional, organism-based
Staphylococcus aureus [5] = assay: In vivo antibacterial activity against vancomycin resistant Staphylococcus aureus infected in macrophage/monocyte deficient kunming mouse assessed as bacterial load in peritoneal lavage at 10 mg/kg, ip administered 24 hrs before infection; assay type: functional, organism-based
[6] = Toxicity in Kunming mouse assessed as effect on IL-10 levels at 10 mg/kg, ip measured after 5 hrs by ELISA; assay type: organism-based; settings: in vivo
Candida albicans [7] = assay: Antimicrobial activity against Candida albicans IS 08030809 incubated for 16 to 18 hrs by fluorescence microplate reader analysis; assay type: functional; settings: time 16-18 hrs
Escherichia coli [8] = assay: Antibiofilm activity against Escherichia coli assessed as biofilm eradication at BIC-5 by XTT and crystal violet staining assay relative to control; assay type: functional
Staphylococcus aureus [9] = assay: Antibacterial activity against vancomycin-resistant Staphylococcus aureus assessed as bactericidal activity incubated at 0 to 90 degree C for 1 hr; assay type: functional, organism-based
[10] = Cytotoxicity against mouse peritoneal macrophage assessed as cell death at 100 ug/ml by MTT assay; assay type: tissue-based
[11] = target: Mitogen-activated protein kinase 1 and 3 (ERK2 and ERK1) (Mus musculus) (UniProt P63085+Q63844); assay: Inhibition of LPS-induced phosphorylation of Erk1/2 in mouse peritoneal macrophage pretreated for 1 hr followed by LPS stimulation measured after 30 mins by Western blot analysis; assay type: tissue-based; settings: dose 5-20 µg/ml, time 1.5 hrs
Pseudomonas aeruginosa = assay: Antimicrobial activity against Pseudomonas aeruginosa IS 08031014 incubated for 16 to 18 hrs by fluorescence microplate reader analysis; assay type: functional; settings: time 16-18 hrs
[12] = Toxicity in Kunming mouse assessed as effect on IL-6 levels at 10 mg/kg, ip measured after 5 hrs by ELISA; assay type: organism-based; settings: in vivo
Macrophage [13] = assay: Inhibition of NFkappaB in mouse peritoneal macrophage assessed as LPS-induced IkappaBalpha degradation at 5 to 20 ug/ml pretreated for 1 hr followed by LPS stimulation measured after 30 mins by Western blot analysis; assay type: tissue-based; settings: dose 20.0 µg/ml, time 1.5 hrs
Nocardia asteroides = assay: Antimicrobial activity against Nocardia asteroids incubated for 16 to 18 hrs by fluorescence microplate reader analysis; assay type: functional; settings: time 16-18 hrs
Candida albicans [14] = assay: Antimicrobial activity against Candida albicans IS 08030401 incubated for 16 to 18 hrs by fluorescence microplate reader analysis; assay type: functional; settings: time 16-18 hrs
Escherichia coli [15] = assay: In vivo antibacterial activity against Escherichia coli ATCC 25922 infected in kunming mouse assessed as decrease in bacterial load in peritoneal lavage at 10 mg/kg, ip administered 4 hrs after infection and measured 18 hrs after infection; assay type: functional, organism-based; settings: time 14.0 hrs
Enterococcus faecium = assay: Antimicrobial activity against Enterococcus faecium IS 1299 incubated for 16 to 18 hrs by fluorescence microplate reader analysis; assay type: functional; settings: time 16-18 hrs
[16] = Immunomodulatory activity in mouse peritoneal macrophage assessed as inhibition of LPS-induced IL-6 level at 5 ug/ml measured after 6 hrs by qRT-PCR analysis relative to control; assay type: functional
Staphylococcus aureus [17] = assay: In vivo antibacterial activity against methicillin sensitive Staphylococcus aureus ATCC 25923 infected in kunming mouse assessed as increase in survival rate at 10 mg/kg, ip administered 4 hrs after infection and measured up to 7 days after infection relative to control; assay type: functional; settings: time day <=7
Staphylococcus aureus [18] = assay: In vivo antibacterial activity against vancomycin resistant Staphylococcus aureus infected in kunming mouse assessed as reduction in bacterial load in spleen at 10 mg/kg, ip administered 24 hrs before infection; assay type: functional, organism-based
Staphylococcus aureus [19] = assay: In vivo antibacterial activity against vancomycin resistant Staphylococcus aureus infected in neutropenic kunming mouse model assessed as bacterial load in peritoneal lavage at 10 mg/kg, ip administered 24 hrs before infection; assay type: functional, organism-based
Escherichia coli [20] = assay: Antimicrobial activity against Escherichia coli IS 08040726 incubated for 16 to 18 hrs by fluorescence microplate reader analysis; assay type: functional; settings: time 16-18 hrs
[21] = Induction of neutrophil extracellular trap formation in neutrophil (unknown origin) at 40 ug/ml measured after 3 hrs by fluorescence analysis; assay type: functional; settings: dose 40 µg/ml
L02 = assay: Cytotoxicity against human HL7702 cells assessed as cell death at 100 ug/ml by MTT assay; assay type: cell-based
Nakaseomyces glabratus [22] = assay: Antimicrobial activity against Candida glabrata IS 09050201 incubated for 16 to 18 hrs by fluorescence microplate reader analysis; assay type: functional; settings: time 16-18 hrs
[23] = Hemolytic activity in human erythrocytes measured at 100 ug/ml; assay type: ADME, cell-based, Erythrocyte; settings: at 100 µg/mL, read-out: Activity
RAW264.7 = assay: Induction of ROS production in mouse RAW 264.7 cells by fluorescence assay; assay type: functional, cell-based; settings: dose 10-40 µg/ml
Nakaseomyces glabratus [24] = assay: Antimicrobial activity against Candida glabrata IS 08A802 incubated for 16 to 18 hrs by fluorescence microplate reader analysis; assay type: functional; settings: time 16-18 hrs
LAD2 = assay: Cytotoxicity against human LAD2 cells assessed as mast cell degranulation at 100 ug/ml relative to control; assay type: cell-based; settings: at 100 µg/mL
Salmonella paratyphi = assay: Antimicrobial activity against Salmonella paratyphi IS 738 incubated for 16 to 18 hrs by fluorescence microplate reader analysis; assay type: functional, Salmonella enterica subsp. enterica serovar Paratyphi A; settings: Salmonella enterica, time 16-18 hrs
Staphylococcus aureus [25] = assay: Antibacterial activity against vancomycin-resistant Staphylococcus aureus assessed as bacterial growth inhibition in presence of 50 mmol NaCl; assay type: functional
Neutrophil [26] = assay: Immunomodulatory activity in neutrophils (unknown origin) assessed as increase in MCP-1 level at 20 ug/ml measured after 12 hrs by ELISA; assay type: functional, cell-based; settings: dose 20.0 µg/ml
Neutrophil [27] = assay: Immunomodulatory activity in neutrophils (unknown origin) assessed as inhibition of LPS-induced IL-6 level at 5 to 20 ug/ml by ELISA; assay type: functional, cell-based; settings: dose 5-20 µg/ml
Staphylococcus aureus [28] = assay: In vivo antibacterial activity against vancomycin resistant Staphylococcus aureus infected in kunming mouse assessed as reduction in bacterial load in peritoneal lavage at 10 mg/kg, ip administered 24 hrs before infection; assay type: functional, organism-based
Macrophage [29] = assay: Immunomodulatory activity in mouse peritoneal macrophage assessed as inhibition of LPS-induced MCP-1 level measured after 24 hrs by ELISA; assay type: functional, tissue-based; settings: dose 5-20 µg/ml
Klebsiella oxytoca [30] = assay: Antimicrobial activity against Klebsiella oxytoca incubated for 16 to 18 hrs by fluorescence microplate reader analysis; assay type: functional; settings: time 16-18 hrs
Klebsiella oxytoca [31] = assay: Antibiofilm activity against Klebsiella oxytoca assessed as biofilm eradication at BIC-5 by XTT and crystal violet staining assay relative to control; assay type: functional
Mus musculus [32] = assay: Immunomodulatory activity in Kunming mouse infected with vancomycin-resistant Staphylococcus aureus assessed as effect number of inflammatory monocytes in peritoneal cavity at 10 mg/kg, ip measured upto 24 hrs by flow cytometry; assay type: functional, organism-based; settings: time hrs <=24

Chain of Mitogen-activated protein kinase 1 and 3 (ERK2 and ERK1) (Mus musculus) (P63085 whole entry, looked up): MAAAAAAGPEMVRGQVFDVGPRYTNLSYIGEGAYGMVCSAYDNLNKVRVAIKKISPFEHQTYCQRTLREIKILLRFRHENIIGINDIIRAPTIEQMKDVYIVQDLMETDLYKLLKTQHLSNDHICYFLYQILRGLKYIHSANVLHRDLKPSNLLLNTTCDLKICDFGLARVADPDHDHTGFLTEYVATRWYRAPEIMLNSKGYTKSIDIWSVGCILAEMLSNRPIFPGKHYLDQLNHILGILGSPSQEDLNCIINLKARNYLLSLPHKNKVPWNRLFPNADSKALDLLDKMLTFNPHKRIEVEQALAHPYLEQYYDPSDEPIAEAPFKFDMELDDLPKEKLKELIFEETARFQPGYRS
Chain of Mitogen-activated protein kinase 1 and 3 (ERK2 and ERK1) (Mus musculus) (Q63844 whole entry, looked up): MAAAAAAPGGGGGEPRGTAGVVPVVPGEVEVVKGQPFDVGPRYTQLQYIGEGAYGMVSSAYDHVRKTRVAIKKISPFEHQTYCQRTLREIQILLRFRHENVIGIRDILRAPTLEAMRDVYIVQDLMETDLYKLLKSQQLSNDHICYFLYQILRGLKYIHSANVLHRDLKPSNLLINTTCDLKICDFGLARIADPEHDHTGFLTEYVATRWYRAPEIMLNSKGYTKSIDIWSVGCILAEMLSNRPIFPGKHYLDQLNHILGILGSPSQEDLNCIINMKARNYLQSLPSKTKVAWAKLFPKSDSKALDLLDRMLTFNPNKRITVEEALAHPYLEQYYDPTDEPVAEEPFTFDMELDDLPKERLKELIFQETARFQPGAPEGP

In the case of `CC[C@H](C)[C@H](NC(=O)[C@@H]1CCCN1C(=O)[C@@H](NC(=O)[C@@H](NC(=O)CNC(=O)CNC(=O)[C@@H](NC(=O)[C@H](Cc1ccccc1)NC(=O)[C@@H](NC(=O)[C@H](CCCCN)NC(=O)[C@@H](NC(=O)[C@H](CCCCN)NC(=O)[C@H](CCCCN)NC(=O)[C@H](Cc1ccccc1)NC(=O)[C@@H](NC(=O)[C@H](CCCCN)NC(=O)[C@H](CCCNC(=N)N)NC(=O)[C@H](Cc1ccccc1)NC(=O)CNC(=O)[C@H](CCCCN)NC(=O)[C@H](CCCCN)NC(=O)[C@@H](NC(=O)[C@H](CCCCN)NC(=O)[C@H](CCCNC(=N)N)NC(=O)[C@H](Cc1ccccc1)NC(=O)[C@H](Cc1ccccc1)NC(=O)[C@H](CCCCN)NC(=O)[C@H](CCCCN)NC(=O)[C@H](Cc1ccccc1)NC(=O)[C@H](CCCNC(=N)N)NC(=O)[C@@H](N)CCCCN)[C@@H](C)CC)[C@@H](C)CC)[C@@H](C)O)[C@@H](C)CC)[C@@H](C)CC)[C@@H](C)O)[C@@H](C)CC)C(=O)O` (H-KRFKKFFRKIKKGFRKIFKKTKIFIGGTIPI-OH), the inhibition (Macrophage [1]) is reported as “Active”, the Activity (Neutrophil [2]) is reported as “inactive” and the Activity [3] is reported as 15.65%. The Activity (Mus musculus [4]) was “Active”, the Activity (Staphylococcus aureus [5]) was “inactive” and the Activity [6] was “Non-Toxic”. For the same molecule, the MIC (Candida albicans [7]) was 1.17 mg/L (≈ 0.308 µM), the Activity (Escherichia coli [8]) was 65.98% and the Activity (Staphylococcus aureus [9]) was “Active”. The Activity [10] was 6.46%, the inhibition [11] was “Dose-dependent effect” and the MIC (Pseudomonas aeruginosa) was 1.17 mg/L (≈ 0.308 µM). The Activity [12] was “Non-Toxic”, the inhibition (Macrophage [13]) was “Active” and the MIC (Nocardia asteroides) was 1.17 mg/L (≈ 0.308 µM). The MIC (Candida albicans [14]) was 1.17 mg/L (≈ 0.308 µM), the Activity (Escherichia coli [15]) was “Active” and the MIC (Enterococcus faecium) was 1.17 mg/L (≈ 0.308 µM). For the same molecule, the inhibition at 5 µg/mL [16] was 99.6%, the Activity (Staphylococcus aureus [17]) was 83% and the Activity (Staphylococcus aureus [18]) was “Active”. The Activity (Staphylococcus aureus [19]) was “inactive”, the MIC (Escherichia coli [20]) was 1.17 mg/L (≈ 0.308 µM) and the Activity [21] was 41.16%. It also gave an Activity (L02) of 4.46%, an MIC (Nakaseomyces glabratus [22]) of 1.17 mg/L (≈ 0.308 µM) and a hemolysis at 100 ug/ml [23] of 6.63%. The Activity (RAW264.7) was “Dose-dependent effect”, the MIC (Nakaseomyces glabratus [24]) was 1.17 mg/L (≈ 0.308 µM) and the Activity (LAD2) was 10.97%. For the same molecule, the MIC (Salmonella paratyphi) was 1.17 mg/L (≈ 0.308 µM), the MIC (Staphylococcus aureus [25]) was 4.69 mg/L and the Activity (Neutrophil [26]) was “Active”. For the same molecule, the inhibition (Neutrophil [27]) was “Active”, the Activity (Staphylococcus aureus [28]) was “Active” and the inhibition (Macrophage [29]) was “Dose-dependent effect”. For the same molecule, the MIC (Klebsiella oxytoca [30]) was 1.17 mg/L (≈ 0.308 µM), the Activity (Klebsiella oxytoca [31]) was 75.31% and the Activity (Mus musculus [32]) was “inactive”.
